Experimental data published in ChEMBL document CHEMBL4011630 (J Med Chem, 2017).
Where a SMILES comes first, the peptide text is derived from it. Bridges are numbered along the chain shown (N, C = ends). [ ]: non-standard residue; d: D form. hMet = CSCCC[C@H](N)C(=O)O

How the values were obtained:
[1] = target: T1, Neuronal acetylcholine receptor; alpha3/beta4 (Rattus norvegicus, UniProt P04757+P12392); assay: Antagonist activity at rat alpha3beta4 nACHR expressed in xenopous laevis oocyte assessed as inhibition of ACh induced channel current after 5 mins at -70 mV holding potential by two electrode voltage clamp method
T1 sequence (P04757 whole entry): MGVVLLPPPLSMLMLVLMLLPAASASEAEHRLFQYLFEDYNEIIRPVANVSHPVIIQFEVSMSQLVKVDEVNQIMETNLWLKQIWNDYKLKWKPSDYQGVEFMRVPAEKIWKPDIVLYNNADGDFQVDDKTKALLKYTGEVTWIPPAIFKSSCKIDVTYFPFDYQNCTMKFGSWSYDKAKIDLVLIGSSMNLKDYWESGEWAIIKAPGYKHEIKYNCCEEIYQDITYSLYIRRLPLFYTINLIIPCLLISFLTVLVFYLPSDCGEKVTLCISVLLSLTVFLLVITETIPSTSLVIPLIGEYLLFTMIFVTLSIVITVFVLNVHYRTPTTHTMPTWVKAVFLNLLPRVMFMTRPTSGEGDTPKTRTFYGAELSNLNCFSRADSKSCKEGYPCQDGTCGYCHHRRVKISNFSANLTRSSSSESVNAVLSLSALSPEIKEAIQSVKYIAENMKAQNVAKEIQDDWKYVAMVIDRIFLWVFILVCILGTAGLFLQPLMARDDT
T1 sequence (P12392 whole entry): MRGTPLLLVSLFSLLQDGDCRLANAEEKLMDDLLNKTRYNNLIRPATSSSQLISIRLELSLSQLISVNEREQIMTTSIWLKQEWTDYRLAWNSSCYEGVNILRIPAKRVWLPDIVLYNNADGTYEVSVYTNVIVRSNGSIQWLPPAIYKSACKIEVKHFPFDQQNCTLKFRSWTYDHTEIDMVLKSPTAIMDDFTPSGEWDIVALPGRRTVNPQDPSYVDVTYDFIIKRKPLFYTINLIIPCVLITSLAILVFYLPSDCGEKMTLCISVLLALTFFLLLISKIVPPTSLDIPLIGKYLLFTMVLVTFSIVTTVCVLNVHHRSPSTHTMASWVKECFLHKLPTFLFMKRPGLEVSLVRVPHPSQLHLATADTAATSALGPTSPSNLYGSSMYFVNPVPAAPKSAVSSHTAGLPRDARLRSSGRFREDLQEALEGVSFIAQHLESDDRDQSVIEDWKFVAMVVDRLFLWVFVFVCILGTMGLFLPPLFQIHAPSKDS

[2] = target: T2, Nicotinic acetylcholine receptor alpha6/alpha3/beta4 (Rattus norvegicus, UniProt P04757+P12392+P43143); assay: Antagonist activity at rat alpha6/alpha3beta4 nACHR expressed in xenopous laevis oocyte assessed as inhibition of ACh induced channel current after 5 mins at -70 mV holding potential by two electrode voltage clamp method
T2 sequence (P04757 whole entry): as the sequence (P04757 whole entry) above
T2 sequence (P12392 whole entry): as the sequence (P12392 whole entry) above
T2 sequence (P43143 whole entry): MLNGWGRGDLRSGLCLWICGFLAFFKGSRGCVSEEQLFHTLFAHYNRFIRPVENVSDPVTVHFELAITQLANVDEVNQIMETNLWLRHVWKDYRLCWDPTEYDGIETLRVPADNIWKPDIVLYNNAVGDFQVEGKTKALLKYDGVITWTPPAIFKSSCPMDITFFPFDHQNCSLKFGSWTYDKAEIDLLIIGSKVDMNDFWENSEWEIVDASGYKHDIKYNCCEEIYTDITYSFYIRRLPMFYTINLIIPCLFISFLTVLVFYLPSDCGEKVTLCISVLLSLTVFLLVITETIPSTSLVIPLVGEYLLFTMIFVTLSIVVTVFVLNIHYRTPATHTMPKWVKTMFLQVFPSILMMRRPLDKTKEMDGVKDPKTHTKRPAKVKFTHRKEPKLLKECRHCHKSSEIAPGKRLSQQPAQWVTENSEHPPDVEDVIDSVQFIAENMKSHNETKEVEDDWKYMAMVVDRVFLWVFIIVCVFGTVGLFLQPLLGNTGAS

[3] = target: T1, Neuronal acetylcholine receptor; alpha3/beta4; assay: Antagonist activity at rat alpha3beta4 nACHR expressed in xenopous laevis oocyte assessed as inhibition of ACh induced channel current at -80 mV holding potential by two electrode voltage clamp method
[4] = target: T2, Nicotinic acetylcholine receptor alpha6/alpha3/beta4; assay: Antagonist activity at rat alpha6/alpha3beta4 nACHR expressed in xenopous laevis oocyte assessed as inhibition of ACh induced channel current at -80 mV holding potential by two electrode voltage clamp method
Rattus norvegicus [5] = species on record: Rattus norvegicus; assay: Selectivity ratio of IC50 for rat alpha6/alpha3beta4 nACHR expressed in xenopous laevis oocyte at -80 mV holding potential to IC50 for rat alpha3beta4 nACHR expressed in xenopous laevis oocyte at -80 mV holding potential
[6] = target: Neuronal acetylcholine receptor subunit alpha-7 (Rattus norvegicus, UniProt Q05941); assay: Antagonist activity at rat alpha7 nACHR expressed in xenopous laevis oocyte assessed as inhibition of ACh induced channel current after 5 mins at -70 mV holding potential by two electrode voltage clamp method
Chain of Neuronal acetylcholine receptor subunit alpha-7 (Q05941 whole entry): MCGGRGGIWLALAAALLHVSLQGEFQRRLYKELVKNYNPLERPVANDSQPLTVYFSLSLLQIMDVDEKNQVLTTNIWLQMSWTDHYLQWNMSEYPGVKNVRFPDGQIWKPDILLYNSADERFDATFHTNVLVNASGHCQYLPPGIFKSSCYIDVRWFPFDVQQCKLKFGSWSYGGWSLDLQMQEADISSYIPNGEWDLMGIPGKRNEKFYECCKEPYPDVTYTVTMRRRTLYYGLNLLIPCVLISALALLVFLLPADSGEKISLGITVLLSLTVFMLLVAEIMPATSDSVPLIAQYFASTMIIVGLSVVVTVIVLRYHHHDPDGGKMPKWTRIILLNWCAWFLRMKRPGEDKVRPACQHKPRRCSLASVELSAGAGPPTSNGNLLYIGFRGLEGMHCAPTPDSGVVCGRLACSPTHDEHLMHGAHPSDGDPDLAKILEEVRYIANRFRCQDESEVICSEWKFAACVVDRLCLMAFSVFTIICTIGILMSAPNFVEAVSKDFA

[7] = target: Nicotinic acetylcholine receptor alpha9/alpha10 (Rattus norvegicus, UniProt P43144+Q9JLB5); assay: Antagonist activity at rat alpha9alpha10 nACHR expressed in xenopous laevis oocyte assessed as inhibition of ACh induced channel current after 5 mins at -70 mV holding potential by two electrode voltage clamp method
Chain of Nicotinic acetylcholine receptor alpha9/alpha10 (P43144 whole entry): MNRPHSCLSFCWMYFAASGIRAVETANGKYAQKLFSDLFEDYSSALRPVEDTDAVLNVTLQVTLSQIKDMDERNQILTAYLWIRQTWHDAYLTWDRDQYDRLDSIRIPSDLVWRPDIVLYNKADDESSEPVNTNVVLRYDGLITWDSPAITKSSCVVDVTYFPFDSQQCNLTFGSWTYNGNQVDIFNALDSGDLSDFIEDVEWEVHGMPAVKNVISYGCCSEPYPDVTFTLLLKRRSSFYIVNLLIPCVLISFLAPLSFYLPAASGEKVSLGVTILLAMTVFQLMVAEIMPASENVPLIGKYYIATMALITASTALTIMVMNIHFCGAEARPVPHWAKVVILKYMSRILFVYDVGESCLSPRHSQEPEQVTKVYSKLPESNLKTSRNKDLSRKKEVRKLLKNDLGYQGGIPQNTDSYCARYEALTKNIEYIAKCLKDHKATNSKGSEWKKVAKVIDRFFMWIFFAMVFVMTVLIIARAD
Chain of Nicotinic acetylcholine receptor alpha9/alpha10 (Q9JLB5 whole entry): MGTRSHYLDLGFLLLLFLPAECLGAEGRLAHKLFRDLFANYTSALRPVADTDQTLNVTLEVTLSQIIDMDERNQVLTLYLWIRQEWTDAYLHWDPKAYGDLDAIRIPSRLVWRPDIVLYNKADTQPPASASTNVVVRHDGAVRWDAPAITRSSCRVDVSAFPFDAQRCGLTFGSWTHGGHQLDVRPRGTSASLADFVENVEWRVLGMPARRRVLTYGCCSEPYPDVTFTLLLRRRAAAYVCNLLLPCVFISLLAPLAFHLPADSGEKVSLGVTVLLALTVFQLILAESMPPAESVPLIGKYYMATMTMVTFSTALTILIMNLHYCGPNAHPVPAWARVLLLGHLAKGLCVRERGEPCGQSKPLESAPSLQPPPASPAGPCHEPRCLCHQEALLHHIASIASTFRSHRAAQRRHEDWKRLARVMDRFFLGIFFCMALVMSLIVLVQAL

[8] = target: Neuronal acetylcholine receptor; alpha3/beta2 (Rattus norvegicus, UniProt P04757+P12390); assay: Antagonist activity at rat alpha3beta2 nACHR expressed in xenopous laevis oocyte assessed as inhibition of ACh induced channel current after 5 mins at -70 mV holding potential by two electrode voltage clamp method
[9] = target: Neuronal acetylcholine receptor; alpha2/beta2 (Rattus norvegicus, UniProt P12389+P12390); assay: Antagonist activity at rat alpha2beta2 nACHR expressed in xenopous laevis oocyte assessed as inhibition of ACh induced channel current after 5 mins at -70 mV holding potential by two electrode voltage clamp method
[10] = target: Neuronal acetylcholine receptor; alpha2/beta4 (Rattus norvegicus, UniProt P12389+P12392); assay: Antagonist activity at rat alpha2beta4 nACHR expressed in xenopous laevis oocyte assessed as inhibition of ACh induced channel current after 5 mins at -70 mV holding potential by two electrode voltage clamp method
Chain of Neuronal acetylcholine receptor; alpha2/beta4 (P12389 whole entry): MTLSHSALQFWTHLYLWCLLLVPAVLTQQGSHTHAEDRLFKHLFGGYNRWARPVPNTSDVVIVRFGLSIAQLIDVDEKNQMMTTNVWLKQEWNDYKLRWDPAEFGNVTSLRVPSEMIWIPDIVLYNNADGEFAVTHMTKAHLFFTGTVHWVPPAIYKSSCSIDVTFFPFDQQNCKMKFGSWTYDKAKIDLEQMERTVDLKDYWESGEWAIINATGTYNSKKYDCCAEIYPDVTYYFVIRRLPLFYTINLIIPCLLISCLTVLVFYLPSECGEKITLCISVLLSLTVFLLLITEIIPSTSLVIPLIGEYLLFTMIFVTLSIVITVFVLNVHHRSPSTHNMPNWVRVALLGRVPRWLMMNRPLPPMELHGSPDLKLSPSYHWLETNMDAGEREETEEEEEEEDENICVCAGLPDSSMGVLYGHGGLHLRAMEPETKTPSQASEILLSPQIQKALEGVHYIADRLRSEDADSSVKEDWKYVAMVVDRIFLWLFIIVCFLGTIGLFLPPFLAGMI
Chain of Neuronal acetylcholine receptor; alpha2/beta4 (P12392 whole entry): as the sequence (P12392 whole entry) above

[11] = target: Neuronal acetylcholine receptor; alpha4/beta2 (Rattus norvegicus, UniProt P09483+P12390); assay: Antagonist activity at rat alpha4beta2 nACHR expressed in xenopous laevis oocyte assessed as inhibition of ACh induced channel current after 5 mins at -70 mV holding potential by two electrode voltage clamp method
[12] = target: Neuronal acetylcholine receptor; alpha4/beta4 (Rattus norvegicus, UniProt P09483+P12392); assay: Antagonist activity at rat alpha4beta4 nACHR expressed in xenopous laevis oocyte assessed as inhibition of ACh induced channel current after 5 mins at -70 mV holding potential by two electrode voltage clamp method
[13] = target: T2, Nicotinic acetylcholine receptor alpha6/alpha3/beta4; assay: Antagonist activity at rat alpha6/alpha3beta4 nACHR expressed in xenopous laevis oocyte assessed as inhibition of ACh induced channel current at -70 mV holding potential by two electrode voltage clamp method
[14] = target: T1, Neuronal acetylcholine receptor; alpha3/beta4; assay: Antagonist activity at rat alpha3beta4 nACHR expressed in xenopous laevis oocyte assessed as inhibition of ACh induced channel current at -70 mV holding potential by two electrode voltage clamp method
Rattus norvegicus [15] = species on record: Rattus norvegicus; assay: Selectivity ratio of IC50 for rat alpha6/alpha3beta4 nACHR expressed in xenopous laevis oocyte at -70 mV holding potential to IC50 for rat alpha3beta4 nACHR expressed in xenopous laevis oocyte at -70 mV holding potential

Row | Structure (SMILES) | IC50 [1] [nM] | IC50 [2] [nM] | other results
1 | CC(C)C[C@@H]1NC(=O)[C@H](C(C)C)NC(=O)[C@H](C)NC(=O)[C@@H]2CSSC[C@H](NC(=O)CN)C(=O)N[C@@H](CSSC[C@H](C(N)=O)NC(=O)[C@H](Cc3ccc(O)cc3)NC1=O)C(=O)N[C@@H](CO)C(=O)N[C@@H](C)C(=O)N[C@@H](CCCN)C(=O)N1CCC[C@H]1C(=O)N2 | 1200 | 58.1 | –
2 | CC[C@H](C)[C@@H]1NC(=O)[C@H](Cc2cnc[nH]2)NC(=O)[C@@H]2CCCN2C(=O)[C@H](C)NC(=O)[C@H](C)NC(=O)[C@H](C(C)C)NC(=O)[C@H](CC(N)=O)NC(=O)[C@@H]2CSSC[C@H](NC(=O)[C@@H](NC(=O)CN)CSSC[C@H](C(=O)O)NC1=O)C(=O)N[C@@H](CO)C(=O)N[C@@H](Cc1c[nH]cn1)C(=O)N1CCC[C@H]1C(=O)N[C@@H](C)C(=O)N2 | – | – | IC50 [3]: 370 nM; IC50 [4]: 5100 nM; Ratio IC50 (Rattus norvegicus [5]): 14
3 | CC[C@H](C)[C@@H]1NC(=O)[C@@H]2CCCN2C(=O)[C@H](CO)NC(=O)[C@H](CCCSC)NC(=O)[C@H](C)NC(=O)[C@H](CO)NC(=O)[C@@H]2CSSC[C@H](NC(=O)CN)C(=O)N[C@@H](CSSC[C@@H](C(N)=O)NC1=O)C(=O)N[C@@H](C)C(=O)N[C@@H](Cc1cnc[nH]1)C(=O)N1CCC[C@H]1C(=O)N[C@@H](C(C)C)C(=O)N2 (H-GCCAHPVCSA[hMet]SPIC-NH2; disulfide 2-8, 3-15) | 10.8 | 64.1 | –
4 | CC[C@H](C)[C@@H]1NC(=O)[C@@H]2CCCN2C(=O)[C@H](CO)NC(=O)[C@H](CCCSC)NC(=O)[C@H](C)NC(=O)[C@H](CO)NC(=O)[C@@H]2CSSC[C@H](NC(=O)[C@H](C)N)C(=O)N[C@@H](CSSC[C@@H](C(N)=O)NC1=O)C(=O)N[C@@H](CO)C(=O)N[C@@H](Cc1cnc[nH]1)C(=O)N1CCC[C@H]1C(=O)N[C@@H](C(C)C)C(=O)N2 (H-ACCSHPVCSA[hMet]SPIC-NH2; disulfide 2-8, 3-15) | 61.9 | 278 | –
5 | CC[C@H](C)[C@@H]1NC(=O)[C@H](Cc2cnc[nH]2)NC(=O)[C@@H]2CCCN2C(=O)[C@H](CC(N)=O)NC(=O)[C@H](CC(N)=O)NC(=O)[C@H](C(C)C)NC(=O)[C@H](CC(N)=O)NC(=O)[C@@H]2CSSC[C@H](NC(=O)[C@@H](NC(=O)CN)CSSC[C@H](C(=O)O)NC1=O)C(=O)N[C@@H](CO)C(=O)N[C@@H](Cc1c[nH]cn1)C(=O)N1CCC[C@H]1C(=O)N[C@@H](C)C(=O)N2 | – | – | IC50 [3]: 47.3 nM; IC50 [4]: 147 nM; Ratio IC50 (Rattus norvegicus [5]): 3.1
6 | CSCCC[C@@H]1NC(=O)[C@H](C)NC(=O)[C@H](CO)NC(=O)[C@@H]2CSSC[C@H](NC(=O)CN)C(=O)N[C@@H](CSSC[C@@H](C(N)=O)NC(=O)[C@H](C)NC(=O)[C@@H]3CCCN3C(=O)[C@H](CO)NC1=O)C(=O)N[C@@H](CO)C(=O)N[C@@H](Cc1cnc[nH]1)C(=O)N1CCC[C@H]1C(=O)N[C@@H](C(C)C)C(=O)N2 (H-GCCSHPVCSA[hMet]SPAC-NH2; disulfide 2-8, 3-15) | 16.1 | 45.8 | –
7 | C[C@@H]1NC(=O)[C@H](Cc2ccc(O)cc2)NC(=O)[C@@H]2CSSC[C@H](NC(=O)CN)C(=O)N[C@@H](CSSC[C@@H](C(N)=O)NC(=O)[C@H](CC(=O)O)NC(=O)[C@@H]3CCCN3C(=O)[C@H](CC(N)=O)NC(=O)[C@H]([C@@H](C)O)NC1=O)C(=O)N[C@@H](CO)C(=O)N[C@@H](Cc1ccc(O)cc1)C(=O)N1CCC[C@H]1C(=O)N1CCC[C@H]1C(=O)N2 (H-GCCSYPPCYATNPDC-NH2; disulfide 2-8, 3-15) | 750 | – | –
8 | CC[C@H](C)[C@@H]1NC(=O)[C@H](CO)NC(=O)[C@@H]2CSSC[C@H](NC(=O)CN)C(=O)N[C@@H](CSSC[C@@H](C(N)=O)NC(=O)[C@H]([C@@H](C)CC)NC(=O)[C@@H]3CCCN3C(=O)[C@H](CO)NC(=O)[C@H](CCCSC)NC1=O)C(=O)N[C@@H](CO)C(=O)N[C@@H](Cc1cnc[nH]1)C(=O)N1CCC[C@H]1C(=O)N[C@@H](C(C)C)C(=O)N2 (H-GCCSHPVCSI[hMet]SPIC-NH2; disulfide 2-8, 3-15) | 74.9 | 50.4 | –
9 | CSCCC[C@@H]1NC(=O)[C@H](C)NC(=O)[C@H](CO)NC(=O)[C@@H]2CSSC[C@H](NC(=O)CN)C(=O)N[C@@H](CSSC[C@@H](C(N)=O)NC(=O)[C@H](CCCNC(=N)N)NC(=O)[C@@H]3CCCN3C(=O)[C@H](CO)NC1=O)C(=O)N[C@@H](CO)C(=O)N[C@@H](Cc1cnc[nH]1)C(=O)N1CCC[C@H]1C(=O)N[C@@H](C(C)C)C(=O)N2 (H-GCCSHPVCSA[hMet]SPRC-NH2; disulfide 2-8, 3-15) | 9.8 | 40.8 | –
10 | CSCCC[C@@H]1NC(=O)[C@H](C)NC(=O)[C@H](CO)NC(=O)[C@@H]2CSSC[C@H](NC(=O)CN)C(=O)N[C@@H](CSSC[C@@H](C(N)=O)NC(=O)[C@H](Cc3ccc(O)cc3)NC(=O)[C@@H]3CCCN3C(=O)[C@H](CO)NC1=O)C(=O)N[C@@H](CO)C(=O)N[C@@H](Cc1cnc[nH]1)C(=O)N1CCC[C@H]1C(=O)N[C@@H](C(C)C)C(=O)N2 (H-GCCSHPVCSA[hMet]SPYC-NH2; disulfide 2-8, 3-15) | 10 | 38.7 | –
11 | CC[C@H](C)[C@@H]1NC(=O)[C@@H]2CCCN2C(=O)[C@H](CO)NC(=O)[C@H](CCCSC)NC(=O)[C@H](C)NC(=O)[C@H](C)NC(=O)[C@@H]2CSSC[C@H](NC(=O)CN)C(=O)N[C@@H](CSSC[C@@H](C(N)=O)NC1=O)C(=O)N[C@@H](CO)C(=O)N[C@@H](Cc1cnc[nH]1)C(=O)N1CCC[C@H]1C(=O)N[C@@H](C(C)C)C(=O)N2 (H-GCCSHPVCAA[hMet]SPIC-NH2; disulfide 2-8, 3-15) | – | – | IC50 [6]: > 10000 nM; IC50 [7]: > 10000 nM; IC50 [8]: > 10000 nM; IC50 [9]: > 10000 nM; IC50 [10]: > 10000 nM; IC50 [11]: > 10000 nM; IC50 [12]: > 10000 nM
12 | CSCCC[C@@H]1NC(=O)[C@H](C)NC(=O)[C@H](CO)NC(=O)[C@@H]2CSSC[C@H](NC(=O)CN)C(=O)N[C@@H](CSSC[C@@H](C(N)=O)NC(=O)[C@H](CC(=O)O)NC(=O)[C@@H]3CCCN3C(=O)[C@H](CO)NC1=O)C(=O)N[C@@H](CO)C(=O)N[C@@H](Cc1cnc[nH]1)C(=O)N1CCC[C@H]1C(=O)N[C@@H](C(C)C)C(=O)N2 (H-GCCSHPVCSA[hMet]SPDC-NH2; disulfide 2-8, 3-15) | 9.2 | 67.4 | –
13 | CC[C@H](C)[C@@H]1NC(=O)[C@@H]2CCCN2C(=O)[C@H](CO)NC(=O)[C@H](CCCSC)NC(=O)[C@H](C)NC(=O)[C@H](CO)NC(=O)[C@@H]2CSSC[C@H](NC(=O)CN)C(=O)N[C@@H](CSSC[C@@H](C(N)=O)NC1=O)C(=O)N[C@@H](CO)C(=O)N[C@@H](C)C(=O)N1CCC[C@H]1C(=O)N[C@@H](C(C)C)C(=O)N2 (H-GCCSAPVCSA[hMet]SPIC-NH2; disulfide 2-8, 3-15) | > 10000 | > 10000 | –
14 | CC(C)C[C@@H]1NC(=O)[C@H](C(C)C)NC(=O)[C@H](C)NC(=O)[C@@H]2CSSC[C@H](NC(=O)CN)C(=O)N[C@@H](CSSC[C@H](C(N)=O)NC(=O)[C@H](Cc3ccc(O)cc3)NC1=O)C(=O)N[C@@H](CO)C(=O)N[C@@H]([C@@H](C)O)C(=O)N1CCC[C@H]1C(=O)N1CCC[C@H]1C(=O)N2 | – | – | IC50 [13]: 1.54 nM; IC50 [14]: 27.7 nM; Ratio IC50 (Rattus norvegicus [15]): 0.056
15 | CC[C@H](C)[C@@H]1NC(=O)[C@@H]2CCCN2C(=O)[C@H](CO)NC(=O)[C@H](CCCSC)NC(=O)[C@H](C)NC(=O)[C@H](CO)NC(=O)[C@@H]2CSSC[C@H](NC(=O)CN)C(=O)N[C@@H](CSSC[C@@H](C(N)=O)NC1=O)C(=O)N[C@@H](CO)C(=O)N[C@@H](Cc1cnc[nH]1)C(=O)N[C@@H](C)C(=O)N[C@@H](C(C)C)C(=O)N2 (H-GCCSHAVCSA[hMet]SPIC-NH2; disulfide 2-8, 3-15) | > 10000 | > 10000 | –
16 | CC[C@H](C)[C@@H]1NC(=O)[C@H](C)NC(=O)[C@H](CO)NC(=O)[C@H](CCCSC)NC(=O)[C@H](C)NC(=O)[C@H](CO)NC(=O)[C@@H]2CSSC[C@H](NC(=O)CN)C(=O)N[C@@H](CSSC[C@@H](C(N)=O)NC1=O)C(=O)N[C@@H](CO)C(=O)N[C@@H](Cc1cnc[nH]1)C(=O)N1CCC[C@H]1C(=O)N[C@@H](C(C)C)C(=O)N2 (H-GCCSHPVCSA[hMet]SAIC-NH2; disulfide 2-8, 3-15) | > 10000 | > 10000 | –
